# Like-named read-outs stand apart in the source and are kept apart here. Marks after values point to notes of the source that are not given here.
# Key:
# [1] = both, human, in vivo
# Procedure: (§3) Two randomized, double-blind, placebo controlled, balanced incomplete block design, crossover studies evaluated the single- and multiple-dose pharmacokinetics of oral cilansetron over a 8 mg to 32 mg dose range. In both studies, subjects were randomized to receive two of three treatments during 2 treatment periods. In one study (12 male and 13 female subjects, aged 23 to 36 years), subjects received 8 mg cilansetron, 16 mg cilansetron, or placebo, while in another study (12 males and 13 females, aged 23 to 41 years), subjects received 16 mg cilansetron, 32 mg cilansetron, or placebo. During each treatment period, subjects received a single dose of their assigned treatment on the first day, followed by a 3-day washout, after which they received the same treatment TID for 5 days.
# (§4) There was a 5-6 day washout period between treatment periods. Doses on the mornings of pharmacokinetic days were administered under fasted conditions. Serial blood sampling and urine collection was performed up to 12 hours following morning dosing on the first day (single dose) and on the last multiple dosing day of each treatment period, and cilansetron pharmacokinetic parameters were evaluated.
# (§5) In two randomized, double-blind, placebo controlled, balanced incomplete block design, crossover studies evaluating the single- and multiple-dose pharmacokinetics of oral cilansetron over a 8 mg to 32 mg dose range, subjects were randomized to receive two of three treatments during 2 treatment periods. In Study S.241.1.101; (12 male and 13 female subjects, aged 23 to 36 years), subjects received 8 mg cilansetron, 16 mg cilansetron, or placebo, while in Study S.24 1.1.102; (12 males and 13 females, aged 23 to 41 years), subjects received 16 mg cilansetron, 32 mg cilansetron, or placebo. During each treatment period, subjects received a single dose of their assigned treatment on the first day, followed by a 3-day washout, after which they received the same treatment TID for 5 days. There was a 5-6 day washout period between treatment periods. Doses on the mornings of pharmacokinetic days were administered under fasted conditions. Serial blood sampling and urine collection was performed up to 12 hours following morning dosing on the first day (single dose) and on the last multiple dosing day of each treatment period, and cilansetron pharmacokinetic parameters were evaluated.
# CYP3A5 = conditions: hepatocytes
# [2] = both, human, in vivo, 32 mg
# Procedure: as §3, §4, §5
# [3] = test system: healthy, elderly subjects; test: Study K.241.5014: colonic transit time, elderly, 8 mg TID; type: in vivo, human
# Description: The effect of cilansetron on gastric emptying time and colonic transit time has been studied in 1 clinical study in healthy young subjects and 2 studies in elderly subjects. For measurement of gastric emptying time, breath samples for the determination of the ^12C/^13C ratio were taken on the last day of each treatment period immediately after ingestion of a ^13C labeled meal. The patients' breath was collected in separate 15-minute intervals, for four hours in total. ^13CO2 measurements were performed with an isotope ratio mass spectrometer. The half-life (TK) and lag-time (Tlag), which describe the duration of gastric emptying, were used as the primary parameters to evaluate gastric emptying time. In all 3 studies, colonic transit time was measured by administration of radio-opaque markers for the last six days of each treatment period, followed by a single abdominal X-ray image at 24 hours after ingestion of the last set of markers. The numbers of markers within the colon were used to calculate segmental (right colon, left colon, and rectosigmoid) and total colonic transit time.
# Studies K.241.5013 and K.241.5014 were randomized, double-blind, placebo-controlled, 2-way crossover studies in 8 healthy male and female elderly subjects, each (ITT population, aged 64-83 years in K.241.5013 and 66-84 years in K.241.5014). Elderly subjects were selected for these studies because they commonly suffer from constipation and it was of interest whether cilansetron would prolong gastrointestinal transit times in this population. Subjects received cilansetron 4 mg or placebo in Study K.241.5013 and cilansetron 8 mg or placebo in Study K.241.5014. Treatments were administered orally TID for 14 days during each period, with a 14-day washout between periods. The primary efficacy parameter was the total mean colonic transit time during each treatment and the secondary parameters were the segmental colonic transit times and the gastric emptying measurements. One-sided t-tests were used to compare efficacy parameters between the cilansetron and placebo treatments.
# [4] = test system: patients with malignant tumors; test: Study K.241.5017: cisplatin-induced nausea and vomiting; type: in vivo, human; conditions: IV 8 mg TID
# Procedure: The effect of cilansetron on nausea and vomiting has been studied in 2 clinical studies in cancer patients. Both studies were randomized, singleblind, positive-controlled, parallel-group, pilot studies in male and female patients with malignant tumors, to investigate the effect of cilansetron on cytostatic-induced nausea and vomiting. In both studies, patients were on their first cycle of chemotherapy and were being treated with cisplatin (275 mg/m2 as a single dose in Study S.24 1.2.10 1 and […] for 5 days in Study K.24 1 S O 17). Patients in Study S.24 1.2.10 1 were aged 40-74 years (ITT population=16) and patients in Study K.24 1 S O 17 were aged 39-74 years (ITT population=19). In both studies, patients were randomized to receive either […] or IV ondansetron 8 mg TID for 1 day (Study S.241.2.101) or 5 days (Study K.2415017), corresponding to the day(s) of their cisplatin administration. If nausea and vomiting were completely controlled on a treatment day, the second and/or third doses of cilansetron or ondansetron could be omitted on that day. The primary efficacy parameter in both studies was the combination of the occurrence of vomiting and the severity of nausea, with a responder being defined as a patient with no vomiting and not more than mild nausea during the treatment day(s). […]
# clinical [5] = conditions: both, human, in vivo
# Procedure: Diurnal variations in cilansetron pharmacokinetics have been evaluated in a randomized, double-blind, placebo-controlled, 2-way crossover study in 9 male and 9 female healthy subjects, aged 21 to 39 years. Subjects were randomized to receive 2 treatments (cilansetron 16 mg tablet and placebo) during the 2 treatment periods. During each treatment period, subjects received a single dose of their assigned treatment on the first day (Day 1), after which they received the same treatment TID for 4 days (Days 2-5). There was a 10-day washout period between treatment periods. Subjects were fasted for at least 2 hours before and following each dose, and heavy physical activity was restricted. Serial blood samples for the measurement of multiple-dose pharmacokinetics of cilansetron were collected up to 24 hours postdose on Day 5.
# clinical [6] = conditions: male, human, in vivo
# Procedure: The single- and multiple-dose pharmacokinetics of cilansetron 8 mg administered intravenously have been studied in a randomized, double-blind, placebo controlled, parallel group study in 12 male subjects (10 subjects received cilansetron 8 mg and 2 received placebo, administered as a 30-minute infusion). […] Doses on pharmacokinetic days were administered under fasted conditions. […] Renal elimination was again observed to be negligible (≦1% of dose).
# CYP1A2 = CYP1A2 (Homo sapiens, UniProt P05177); test: biochemical
# [7] = test system: non-constipated IBS patients; test: clinical; type: in vivo, human; conditions: linear regression
# Procedure: (§1) Various covariates were screened during development of the population pharmacokinetic model, including age, height, weight, body surface area, body mass index, race, gender, smoking status, serum creatinine levels, serum creatinine clearance, total bilirubin levels, cilansetron dose, and concomitant medication usage. Some efficacy and safety parameters were also evaluated in this population analysis using correlation analyses. Efficacy parameters evaluated included overall relief of IBS symptoms (Responder or Non-Responder), intensity of abdominal pain, number of stools and stool consistency, symptoms of abdominal and rectal discomfort (straining, urgency, feeling of incomplete defecation, passage of mucus, bloating, and feeling of abdominal distension), and upper GI symptoms at Visit 5 (vomiting, heartburn, early satiety, postprandial fullness, sensation of prolonged digestion, and nausea). Safety parameters evaluated included the top ten most frequently observed adverse events (constipation, flatulence, nausea, abdominal pain, headache, dyspepsia, infection, gastrointestinal disorders, anorexia, and diarrhea).
# (§2) A statistically significant negative correlation was found between exposure (AUC and Cmax at steady state) and some efficacy parameters including change in stool consistency (adjusted for baseline) and the experience of straining. Patients with higher exposure to cilansetron and/or its 4-hydroxy metabolites were more likely to have lower stool consistency scores (a tendency for harder stools) than patients with lower exposure. […] In addition, patients with higher exposure to cilansetron were more likely to experience straining.
# clinical [8] = type: in vivo, human; conditions: both sexes, human, in vivo
# Procedure: as §1, §2
# [9] = 8 mg TID oral 14 days, healthy elderly, Study K.241.5014, mean (SD)
# Chain of CYP1A2 (P05177 whole entry): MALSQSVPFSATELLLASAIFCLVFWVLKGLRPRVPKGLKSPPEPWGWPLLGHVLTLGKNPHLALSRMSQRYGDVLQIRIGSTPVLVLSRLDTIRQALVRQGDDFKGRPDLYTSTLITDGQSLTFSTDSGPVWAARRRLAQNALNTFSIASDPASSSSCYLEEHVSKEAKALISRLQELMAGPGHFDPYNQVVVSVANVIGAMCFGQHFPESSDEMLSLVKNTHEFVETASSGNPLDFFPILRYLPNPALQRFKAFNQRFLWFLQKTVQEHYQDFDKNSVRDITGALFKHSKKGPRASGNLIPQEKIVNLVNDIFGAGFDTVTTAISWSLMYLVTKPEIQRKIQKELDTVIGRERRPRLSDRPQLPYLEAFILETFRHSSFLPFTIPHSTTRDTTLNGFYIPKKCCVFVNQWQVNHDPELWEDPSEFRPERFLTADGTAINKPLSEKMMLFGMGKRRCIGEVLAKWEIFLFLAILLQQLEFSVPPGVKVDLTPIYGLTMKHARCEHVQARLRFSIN
smiles,measurement,setting,value
"Cc1nccn1C[C@H]1CCc2c(c3cccc4c3n2CCC4)C1=O [Cilansetron, (R)-(−)-4,5,6,8,9,10-hexahydro-10-[(2-methyl-1H-imidazol-1-yl)methyl]-11H-pyrido-[3,2,1-jk]-carbazol-11-one]",Dose excreted unchanged in urine,[1],less than 1%
same,Intrasubject % CV,[1],23-51%
same,Mean AUC(0-τ) (multiple dose) to AUC(0-inf) (single dose) ratios,[1],81-94%
same,AUC Ratio (90% CI),[1]; 8 mg,"84 (46, 154) %"
same,Cmax Ratio (90% CI),[1]; 8 mg,"82 (42, 160) %"
same,DN-AUC,[1]; 8 mg,14.0 (49) ng · h/mL
same,AUC Ratio (90% CI),[1]; 16 mg,"58 (32, 103) %"
same,Cmax Ratio (90% CI),[1]; 16 mg,"54 (29, 103) %"
same,AUC Ratio (90% CI),"[1]; po, 8 mg","81 (46, 145) %"
same,Cmax Ratio (90% CI),"[1]; po, 8 mg","77 (46, 128) %"
same,AUC Ratio (90% CI),"[1]; po, 16 mg","82 (47, 142) %"
same,Cmax Ratio (90% CI),"[1]; po, 16 mg","79 (49, 130) %"
same,CYP3A5 mRNA,CYP3A5,doubled
same,DN-AUC,[2],14.1 (61) ng · h/mL
same,Total colonic transit time vs placebo,[3]; 8 mg TID,statistically significant increase
same,"Transit Times, Colonic Segments Left",[3]; [9],31.5 (30.5) hours
same,"Transit Times, Colonic Segments Rectosigmoid",[3]; [9],16.7 (25.2) hours
same,"Transit Times, Colonic Segments Right",[3]; [9],31.4 (21.0) hours
same,"Transit Times, Colon Total","[3]; 8 mg TID oral 14 days, healthy elderly, Study K.241.5014, mean (SD), significant vs placebo (p < 0.05)",79.8 (49.8)* hours
same,Response rate,[4],21.4%
same,Cmax,clinical [5]; Cmax,0.0769 µg/mL
same,Tmax,clinical [5]; Tmax,1 h
same,Intersubject % CV for AUC,clinical [6],31-34%
same,Intrasubject % CV,clinical [6],18%
same,Renal elimination,clinical [6],≤ 1 % of dose
same,% Dose (urine),clinical [6]; iv,0.44 (70) %
same,Linearity Ratio,clinical [6]; iv,118%
same,DN-AUC,"clinical [6]; iv, 8 mg",22.8 (31) ng · h/mL
same,AUC,"clinical [6]; iv, 8 mg, AUC",0.182 µg·h/mL
same,clearance,"clinical [6]; iv, 8 mg, CL",792 mL/min
same,CL renal,"clinical [6]; iv, 8 mg, CLr",3.29 mL/min
same,clearance,"clinical [6]; iv, 8 mg, Systemic plasma clearance",800 mL/min
same,half-life,"clinical [6]; iv, 8 mg, T½",1.7 h
same,IC50,CYP1A2,60 µM
same,Decrease in stool consistency score per 600 ng*h/mL AUC or 100 ng/mL Cmax,[7],0.5 point
same,AUC,clinical [8],0.36 µg·h/mL
same,Cmax,clinical [8],0.065 µg/mL
